Source: ChEMBL document CHEMBL1201862, “PubChem BioAssay data set” (2004)
Activity calls are given as the source filed them.

tested on: Streptococcus sp. 'group A'; experiment: growth inhibition of control SK(-) GAS strain, dose response, counter-screen for streptokinase expression inhibitor project, luminescence, kanamycin, BacTiterGlo, confirmation (AID 1900); assay type: functional, organism-based; conditions: not given

Compound | EC50
FC(F)Sc1ccc(NC(S)=NC(c2ccccc2)c2ccccc2)cc1 | 2.4 µM (active)
O=C(N[C@H](CO)[C@H](O)c1ccc([N+](=O)[O-])cc1)C(Cl)Cl [CHLORAMPHENICOL] | 1.84 µM (active)

tested on: not listed separately; experiment: inhibitors of intracellular T. cruzi replication, confirmation, NIH3T3 host cells, beta-gal luminescence (AID 2044); assay type: functional, cell-based; conditions: not given;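 note: intracellular parasites grown in NIH/3T3 mouse fibroblasts as host cells; luminescent beta-galactosidase reporter signal from transgenic T. cruzi replicating inside host cells; inhibitors lower the luminescence signal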

Compound | EC50
CC(C)NCC(O)COCCOc1ccc(Br)cc1 (configuration not stated) | 1.1 µM (active)
Cc1ccc(C2c3c(C)nn(-c4ccc([N+](=O)[O-])cc4)c3N=C3C(=O)Nc4ccccc4N32)cc1 (configuration not stated) | 1.45 µM (active)
Cc1c(C(O)CN2CCN(Cc3ccc4c(c3)OCO4)CC2)c2ccccc2n1C (configuration not stated) | 2.47 µM (active)
CN(CCOc1ccccc1)C(=O)c1cc([N+](=O)[O-])cc([N+](=O)[O-])c1 | 0.7 µM (active)
Fc1ccc(N2CCN(C3=Nc4cccc5cccc3c45)CC2)cc1 | 1.74 µM (active)
CCn1cc(CN2CCCC(C(=O)c3ccc(-c4ccccc4)cc3)C2)cn1 (configuration not stated) | 0.222 µM (active)
O=C(/C=C/c1cc[n+](CC(=O)c2ccc3cccc4c3c2CC4)cc1)c1ccc2cccc3c2c1CC3 | 0.146 µM (active)
CN(C)CCCNc1ncc(C(F)(F)F)cc1Cl | 0.659 µM (active)
CCOCCCN=C(S)NCCNc1nc2c(C)cccc2cc1C#N | 2.73 µM (active)
Cc1ccc2nc(O)c(CN(CCCN(C)C)C(S)=NCCc3ccccc3)cc2c1 | 0.409 µM (active)
CCN(CC)CCN(C)C(=O)CCc1nnc(-c2ccc(C)s2)o1 | 1.35 µM (active)
CN1CCC(OC(=O)c2ccccc2Cl)CC1 | 0.178 µM (active)
COC(=O)[C@@H]1CC[C@H](C)[C@@H](c2ccc(C)cc2)N1C(=O)c1ccc(/C=N/O[C@@H](C)c2cn([C@H](CO)Cc3ccccc3)nn2)cc1 | 0.891 µM (active)
C=CCNC(=O)O/N=C/c1csc([N+](=O)[O-])c1 | 1.93 µM (active)

tested on: not listed separately; experiment: cytotoxicity toward NIH3T3 fibroblasts, dose response, counter-screen, cell-based, ATP luminescence, mouse fibroblasts (AID 2010); assay type: functional; conditions: not given;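 note: cells exposed to compound for about 90 hours before reading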

Compound | EC50
CC(C)NCC(O)COCCOc1ccc(Br)cc1 (configuration not stated) | > 30 µM (not active)
Cc1ccc(C2c3c(C)nn(-c4ccc([N+](=O)[O-])cc4)c3N=C3C(=O)Nc4ccccc4N32)cc1 (configuration not stated) | > 60 µM (not active)
Cc1c(C(O)CN2CCN(Cc3ccc4c(c3)OCO4)CC2)c2ccccc2n1C (configuration not stated) | > 60 µM (not active)
CN(CCOc1ccccc1)C(=O)c1cc([N+](=O)[O-])cc([N+](=O)[O-])c1 | > 30 µM (not active)
Fc1ccc(N2CCN(C3=Nc4cccc5cccc3c45)CC2)cc1 | > 30 µM (not active)
CCn1cc(CN2CCCC(C(=O)c3ccc(-c4ccccc4)cc3)C2)cn1 (configuration not stated) | 16.7 µM (active)
O=C(/C=C/c1cc[n+](CC(=O)c2ccc3cccc4c3c2CC4)cc1)c1ccc2cccc3c2c1CC3 | > 60 µM (not active)
CN(C)CCCNc1ncc(C(F)(F)F)cc1Cl | > 30 µM (not active)
CCOCCCN=C(S)NCCNc1nc2c(C)cccc2cc1C#N | > 60 µM (not active)
Cc1ccc2nc(O)c(CN(CCCN(C)C)C(S)=NCCc3ccccc3)cc2c1 | > 60 µM (not active)
CCN(CC)CCN(C)C(=O)CCc1nnc(-c2ccc(C)s2)o1 | > 60 µM (not active)
CN1CCC(OC(=O)c2ccccc2Cl)CC1 | 10.5 µM (active)
COC(=O)[C@@H]1CC[C@H](C)[C@@H](c2ccc(C)cc2)N1C(=O)c1ccc(/C=N/O[C@@H](C)c2cn([C@H](CO)Cc3ccccc3)nn2)cc1 | > 60 µM (inconclusive)
C=CCNC(=O)O/N=C/c1csc([N+](=O)[O-])c1 | > 60 µM (not active)

tested on: Streptococcus; experiment: Group A Streptococcus viability loss, dose response, counter-screen for streptokinase expression inhibitor project, luminescence, BacTiterGlo (AID 1915); assay type: functional, organism-based; conditions: not given;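 note: potency for reduction of bacterial viability or growth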

Compound | EC50
FC(F)Sc1ccc(NC(S)=NC(c2ccccc2)c2ccccc2)cc1 | 3.15 µM (active)
O=C(N[C@H](CO)[C@H](O)c1ccc([N+](=O)[O-])cc1)C(Cl)Cl [CHLORAMPHENICOL] | 2.55 µM (active)

biological target: Cytochrome P450 2C19 (Homo sapiens, UniProt P33261); experiment: Cytochrome panel assay with activity outcomes. Panel member name: p450-cyp2c19 Compounds with AC50 equal or less than 10 uM are considered active; assay type: functional; conditions: not given
Sequence (P33261 whole entry): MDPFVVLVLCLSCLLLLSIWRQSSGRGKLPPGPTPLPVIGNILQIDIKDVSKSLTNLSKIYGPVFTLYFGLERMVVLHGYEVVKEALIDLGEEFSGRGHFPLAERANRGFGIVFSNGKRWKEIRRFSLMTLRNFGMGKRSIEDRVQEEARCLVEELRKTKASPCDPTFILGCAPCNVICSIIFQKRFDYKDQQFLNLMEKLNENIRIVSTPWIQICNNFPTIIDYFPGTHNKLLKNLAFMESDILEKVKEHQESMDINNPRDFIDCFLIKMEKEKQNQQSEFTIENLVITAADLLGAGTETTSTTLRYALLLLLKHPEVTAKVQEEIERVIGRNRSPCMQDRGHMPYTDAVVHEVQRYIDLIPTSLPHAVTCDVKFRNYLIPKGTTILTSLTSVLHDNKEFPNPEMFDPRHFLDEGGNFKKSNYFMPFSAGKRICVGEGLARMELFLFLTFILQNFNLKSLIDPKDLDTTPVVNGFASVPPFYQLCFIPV

Compound | AC50
Cc1ccc(OC(=O)c2cccc(C(=O)Oc3ccc(C)cc3)n2)cc1 | inconclusive
Cn1c(=O)c2[nH]c(-c3ccc(S(=O)(=O)O)cc3)nc2n(C)c1=O | inconclusive

same assay, conditions: read-out: AC50

Compound | AC50
COc1cccc(-c2nc(NC3CC3)c3ccccc3n2)c1 | 10 µM (inconclusive)
COc1ncc2nc(-c3cn(C)c4ccccc34)c(=O)n(Cc3ccc(F)cc3)c2n1 | 15.8 µM (inconclusive)
C/C(CCC(=O)OC[C@@H]1O[C@H](C#Cc2ccccc2)C=C[C@@H]1Oc1ccc(C)cc1)=N/O[C@@H](C)CN1CCCCc2nc(C)c(C)cc21 | 1.26 µM (inconclusive)
CCC/C=C(\CCC)C(NS(=O)(=O)CC12CCC(CC1=O)C2(C)C)c1ccc(C(=O)OC)cc1 (configuration not stated) | 25.1 µM (inconclusive)
O=C(C(Cc1ccccc1)N1C(=O)C2C3CCC(C3)C2C1=O)N1CCCCC1 (configuration not stated) | 7.08 µM (inconclusive)
CCn1c(SCC(=O)OC)nnc1C1CCCCC1 | 14.1 µM (inconclusive)
CCc1c(C)nc(N)n2c(SCC(=O)Nc3ccccc3)nnc12 | 22.4 µM (inconclusive)
Cn1c[n+](C)cc1/C=N/O | 8.91 µM (inconclusive)
